Laboratory results published in patent publication US10308617B2, “Triazole benzamide derivatives and the compositions and methods of treatment regarding the same” (An2H Discovery Limited, priority 2016, dated 2019).

Target: T1, Parkin ligase (Homo sapiens, UniProt O60260)
T1 sequence (O60260 1-465): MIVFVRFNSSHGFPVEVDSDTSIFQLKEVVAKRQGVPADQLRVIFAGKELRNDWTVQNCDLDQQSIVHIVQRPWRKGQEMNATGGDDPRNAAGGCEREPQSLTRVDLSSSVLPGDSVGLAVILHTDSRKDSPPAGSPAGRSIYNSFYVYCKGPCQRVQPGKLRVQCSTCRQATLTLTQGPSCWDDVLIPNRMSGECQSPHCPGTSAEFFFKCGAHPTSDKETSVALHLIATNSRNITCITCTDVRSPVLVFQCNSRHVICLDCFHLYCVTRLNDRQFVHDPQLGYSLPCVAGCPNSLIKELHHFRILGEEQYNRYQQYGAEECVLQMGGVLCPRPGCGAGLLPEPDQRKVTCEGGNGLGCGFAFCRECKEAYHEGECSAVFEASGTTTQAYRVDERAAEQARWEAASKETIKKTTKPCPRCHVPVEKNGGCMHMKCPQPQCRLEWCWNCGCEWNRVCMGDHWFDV
Assay: Activity-Based Probe Assay using an Ubiquitin vinyl sulfone probe (TR-FRET)
Assay type: biochemical
Conditions: Parkin activation, HA-Ub-VS probe, heat activated Parkin; read-out: Probe Assay EC50 (μM) [Example 2]
Method: An Ubiquitin vinyl sulfone probe can be used that irreversibly binds to the active site cysteine of Parkin ligase. Covalent attachment of the probe to the Parkin can be monitored by TR-FRET. Candidate activator compounds can be identified by increasing the activity of Parkin ligase due to an increase in TR-FRET signal. Screening for activating compounds can be distinguished from the controls as follows: • 100% activation signal=Heat activated Parkin+100 nM control activator in DMSO. • 0% activation signal=Heat activated Parkin+DMSO only. • Parkin activators can be identified by an increase of the 0% activation signal TR-FRET signal.
• Assay Plate: White 384 well plate (Corning 3572) • Enzyme: Parkin-His tagged 203 μM (10.5 mg/ml) • Probe: Ubiquitin vinyl-sulfone (HA-Ub-VS Boston Biochem U-212) • DMSO: DMSO (Sigma cat # D4540-100ML) • Reaction Buffer: 50 mM HEPES (pH 8.5), 150 mM NaCl, 0.01% Tween 20, 0.1% BSA • Detection Buffer: 50 mM HEPES (pH 8.5), 150 mM NaCl, 0.01% Tween 20, 0.1% BSA, 800 mM KF • Detection Reagent A: 2.6 nM Anti-6HIS-Eu cryptate and 40 nM Anti-HA-XL665 in detection buffer • Eu cryptate: Anti-6HIS-Eu cryptate (CisBio 61HISKLA) • XL665: Anti-HA-XL665 (CisBio 610HAXLA) Enzyme Reaction (15 min pre incubation Parkin with activator only) • Parkin: 40 nM • HA-Ub-VS Probe: 70 nM • Activator/DMSO: 2× Activator/2% DMSO • Reaction time: 60 minutes • Temperature: 22° C. • Total volume: 10 μl reaction Detection Reaction • Take 10 μl of Enzyme Reaction above and add 10 μl detection Reagent A under the following conditions: • Reaction time: 60 minutes • Temperature: 22° C. • Total volume: 20 μl
Assay procedure (Using HP D-300 compound dispenser and Bravo for the operation): • 1) Heat activate Parkin in reaction buffer (500 μl/1.5 ml tube: Eppendorf Thermomixer 5 minutes, 400 rpm at 58° C. and put on ice until needed). • 2) Load assay plate wells with 4.8 μl 84.5 nM Parkin in reaction buffer by use of Bravo. • 3) Deliver 0.2 μl 200× activator candidates in DMSO by use of HP D-300 compound dispenser. Highest 200× concentration=[…] and then twofold dilutions. • 4) Spin 1000 rpm, 2 minutes, at room temp. • 5) Incubate plate for 15 minutes at room temp. • 6) Add 5 μl 140 nM HA-Ub-VS Probe in reaction buffer by use of Bravo. • 7) Spin 1000 rpm, 2 minutes, at room temp. • 8) Incubate plate for 60 minutes at room temp. • 9) Add 10 μl 2.6 nM Anti-6HIS-Eu cryptate and 40 nM Anti-HA-XL665 in detection buffer. • 10) Spin 1000 rpm, 2 minutes, at room temp. • 11) Incubate plate for 60 minutes at room temp. • 12) Read plates on Perkin Elmer Envision instrument with the following parameters: • LANCE dual laser protocol loaded into the Envision® software • Top Mirror: LANCE/DELFIA Duel/Bias (Bar code 446) • Emission Filter: APC 665 EM (Bar code 205) • 2nd Emission Filter: Europium 615 EM (Bar code 203) • Read 655 nm (channel 1) and 615 nm (channel 2) wavelengths on Envision®
Data Analysis: The Data can be read in CSV files. There are two tables in those CSV files, which are the values of 655 nm (channel 1) and 615 nm (channel 2) wavelengths respectively. The data is converted to an HTRF Ratio=(Channel 1/Channel 2)*10,000
The average of all the 0 uM controls (DMSO only)=BKGD (Background—0% activation). Subtract BKGD from each HTRF Ratio value=HTRF-BKGD. The average of all the […] 100 nM control activator in DMSO controls=Max (100% activation). The following equation is then used to calculate % Activation for each well/candidate as follows: % Activation=(HTRF-BKGD/Max)*100.
Graphpad Prisim was used with Transform X values: X=Log(X) and nonlinear regression (dose-response-stimulation): Log(agonist) vs Response—variable slope (four parameters) with constrains set to Bottom=0 and Top=100.
The Activity-Based Probe Assay was performed with various compounds in Tables 1-3.

| Structure (SMILES) | EC50 |
| --- | --- |
| Cc1ccccc1C(=O)Nc1nc(NC(=O)c2ccccn2)n(-c2ccccc2)n1 [Compound A3] | > 100 µM |
| Cc1ccccc1C(=O)Nc1nc(NC(=O)c2ccccc2C)n(-c2ccncc2)n1 [Compound B3] | > 100 µM |
| Cc1ccccc1C(=O)Nc1nc(NC(=O)c2ccccc2C)n(C(C)(C)C)n1 [Compound D3] | > 100 µM |
| Cc1ccccc1C(=O)Nc1nc(NC(=O)c2ccccc2F)n(-c2ccccc2)n1 [Compound E3] | > 100 µM |
| Cc1cccc(C(=O)Nc2nc(NC(=O)c3cccc(C)c3)n(-c3ccccc3)n2)c1 [Compound F3] | > 100 µM |
| Cc1ccccc1C(=O)Nc1nc(-c2ccncn2)nn1-c1ccccc1 [Compound G3] | 74 µM |
| Cc1ccccc1C(=O)Nc1nc(NC(=O)c2ccccc2C)n(CC(C)C)n1 [Compound I3] | > 100 µM |
| Cc1ccccc1C(=O)Nc1nc(NC(=O)c2ccccc2C)n(C2CCCCC2)n1 [Compound J3] | 37 µM |
| COc1ccccc1C(=O)Nc1nc(NC(=O)c2ccccc2C)nn1-c1ccccc1 [Compound K3] | 17 µM |
| Cc1ccccc1C(=O)Nc1nc(NCCc2ccccc2)n(-c2ccccc2)n1 [Compound L3] | > 100 µM |
| Cc1ccccc1C(=O)Nc1nc(NC(=O)c2ccncc2)n(-c2ccccc2)n1 [Compound M3] | > 100 µM |
| Cc1ccccc1C(=O)Nc1nc(N)n(-c2ccccc2)n1 [Compound N3] | > 100 µM |
| Cc1ccccc1C(=O)Nc1nc(NC(=O)c2ccccc2C)n(-c2ccc(F)cc2)n1 [Compound O3] | > 100 µM |
| Cc1ccccc1C(=O)Nc1nc(NC(=O)c2ccccn2)n(-c2ccccc2)n1 [Compound P3] | 9 µM |
| Cc1ccccc1C(=O)Nc1nc(NC(=O)c2ccccc2C)n(-c2cccnc2)n1 [Compound Y2] | > 100 µM |
